Laboratory results from patent US20090170906A1, “HCV INHIBITORS” (priority 2004, published 2009).

System: HCV genotype 1b strain Con1 replicon (ET replicon line, Huh7 cells)
Assay: ET replicon luciferase assay (HCV activity)
Format: cell-based
Conditions: Hepatitis C virus, Huh-7, Huh7 cells with HCV genotype 1b Con1 luciferase replicon, 72 hours incubation
Method: Compounds of the current invention are believed useful in the treatment and/or prophylaxis of conditions and diseases associated with HcV infection. Activity mediated through HCV was determined using an ET replicon line.
The Materials used include a Medium comprised of DMEM (1× liquid, high glucose); Invitrogen cat# 11965-092; 100× Penicillin/Streptomycin solution (10,000 Units/mL); Invitrogen cat# 15140-122; 100× Non-essential amino acid solution (10 mM); Invitrogen cat# 11140-050; Fetal bovine serum; JRH Biosciences cat# 12107-500M; Geneticin (50 mg/mL); Invitrogen cat# 10131-035
The Luciferase assay reagents include Steady-Glo Luciferase assay system, cat# E2550 (Promega)
The ET replicon line (see Lohmann et al. (1999), Replication of subgenomic hepatitis C virus RNAs in a hepatoma cell line. Science 285: 110-113; Krieger et al. (2001), Enhancement of hepatitis C virus RNA replication by cell culture-adaptive mutations. J. Virol. 75: 46144624; and Vrolijk et al. (2003), A replicon-based bioassay for the measurement of interferons in patients with chronic hepatitis C. J. Virol. Meth. 110: 201-209, each herein incorporated by reference with regard to the ET replicon line), includes Huh7 cells stably transfected with HCV genotype 1b strain Con1 replicon. This replicon expresses the firefly luciferase, has the coding region for ubiquitin inserted upstream of the neomycin gene, and carries three cell culture-adaptive mutations that enhance RNA replication cooperatively (E1202G, T1280I, and S2197P). The ET cell line was obtained under licence from: R^eBLikon GmbH, Nach dem alten Schloss 22, 55239 Gau-Odemheim, Germany.
Cells are maintained at 37° C., 5% CO2, in DMEM with 10% FCS, 1× penicillin/streptomycin, 1× non-essential amino acids, 0.5 mg/mL Geneticin. For passage, cells are washed once with PBS, and incubated at 37° C. with sufficient trypsin (0.05%)/versene to cover the monolayer. Once detached from the flask, cells are mixed with several mLs of DMEM+10% FBS to inactivate the trypsin, then diluted appropriately (usually 1 in 5 or 1 in 10) with sufficient medium to pass to a new flask. For a T225 flask, 40-50 mLs total volume of cells+medium is typically used. To prevent the density dependent drop in replicon RNA, the ET cell line is maintained at sub-confluent (60-80%) levels.
Compounds are diluted in DMSO across the first 10 wells of a Costar V-bottom 96-well plate using a Biomek 2000 Workstation (Beckman-Coulter), with 0.5 log10 dilution intervals. DMSO only is added to the last two columns of the plate. The top concentration of drug in this master plate is typically 2.5 mM. A 1/5 dilution of the compounds is made by adding DMEM+10% FBS with a multichannel pipettor, giving a top concentration of 500 μM. 5 μL of diluted compounds is transferred into black Costar flat bottom 96-well daughter plates using a RapidPlate workstation (Zymark).
Cells are grown to approximately 80% confluency and trypsinised as described above. Cells are counted in a Levy Hemocytometer and diluted to 20,000 cells/ml in DMEM containing 10% FBS, 1× penicillin/streptomycin, 1×NEAAs. (Note: Geneticin is omitted for the assay).
245 μL cell suspension is added to the first 11 columns of the daughter plates prepared as above using a Multidrop dispenser (Titertek). Thus, 5,000 cells are added per well, and the final top concentration of each compound is 10 μM. The twelfth column of each plate is used to generate background readings for the assay. Plates are incubated at 37° C., 5% CO2 for 72 hours.
Steady-Glo reagent is prepared according to the manufacturer's instructions, by mixing the Steady-Glo Buffer and Steady-Glo substrate Buffer at room temperature. Medium is removed from the 96-well plates containing ET cells treated with compound using a multi-channel aspirator. 100 μl of Steady-Glo reagent is added to each well using a multichannel pipettor or Multidrop dispensor. […]

| SMILES | IC50 |
| --- | --- |
| O=C(NC1CCCc2c1[nH]c1ccc(Br)cc21)c1ccccc1 (stereo not drawn) [Example 14A, N-(6-Bromo-2,3,4,9-tetrahydro-1H-carbazol-1-yl)benzamide] | 17 nM |
| O=C(NC1CCCc2c1[nH]c1ccc(Br)cc21)c1ccccc1F (stereo not drawn) [Example 29, N-(6-Bromo-2,3,4,9-tetrahydro-1H-carbazol-1-yl)-2-fluorobenzamide] | 6 nM |
| O=C(N[C@@H]1CCCc2c1[nH]c1ccc(Cl)cc21)c1ccccc1 [Example 36B, N-[(1R)-6-chloro-2,3,4,9-tetrahydro-1H-carbazol-1-yl]benzamide] | < 30 nM |
| O=C(NC1CCCc2c1[nH]c1ccc(Br)cc21)c1ccccn1 (stereo not drawn) [Example 38, N-(6-Bromo-2,3,4,9-tetrahydro-1H-carbazol-1-yl)pyridine-2-carboxamide] | 7 nM |
| O=C(N[C@@H]1CCCc2c1[nH]c1ccc(Cl)cc21)c1ccccn1 [Example 45B, N-[(1R)-6-chloro-2,3,4,9-tetrahydro-1H-carbazol-1-yl]pyridine-2-carboxamide] | 6 nM |
| O=C(N[C@@H]1CCCc2c1[nH]c1ccc(Cl)cc21)c1ccccc1F [Example 46B, N-[(1R)-6-chloro-2,3,4,9-tetrahydro-1H-carbazol-1-yl]-2-fluorobenzamide] | 16 nM |
